Assay results taken from PubChem BioAssay (NCI).
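Growth conditions: 96-well plates. Treatment: test compound, 48 hours, 5 concentrations. Analysis: linear interpolation between bracketing concentrations; unreached endpoints set to highest concentration. GI50 is the concentration that inhibits growth by half. At the TGI there is no net growth.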

How the values were obtained:
Assay in all cases: growth of human tumour cells (NCI), 48 h
786-0 renal = test system: 786-0 renal
A498 renal = test system: A498 renal
A549 NSCLC = test system: A549 NSCLC
ACHN renal = test system: ACHN renal
BT-549 breast = test system: BT-549 breast
CCRF-CEM leukemia = test system: CCRF-CEM leukemia
COLO 205 colon = test system: COLO 205 colon
DU-145 prostate = test system: DU-145 prostate
EKVX NSCLC = test system: EKVX NSCLC
HCC-2998 colon = test system: HCC-2998 colon
HCT-116 colon = test system: HCT-116 colon
HCT-15 colon = test system: HCT-15 colon
HL-60(TB) leukemia = test system: HL-60(TB) leukemia
HOP-62 NSCLC = test system: HOP-62 NSCLC
HOP-92 NSCLC = test system: HOP-92 NSCLC
HS 578T breast = test system: HS 578T breast
IGROV1 ovarian = test system: IGROV1 ovarian
K-562 leukemia = test system: K-562 leukemia
KM12 colon = test system: KM12 colon
LOX IMVI melanoma = test system: LOX IMVI melanoma
M14 melanoma = test system: M14 melanoma
MALME-3M melanoma = test system: MALME-3M melanoma
MCF7 breast = test system: MCF7 breast
MDA-MB-231 breast = test system: MDA-MB-231 breast
MDA-MB-435 = test system: MDA-MB-435
MDA-MB-468 breast = test system: MDA-MB-468 breast
NCI-H226 lung = test system: NCI-H226 lung
NCI-H23 lung = test system: NCI-H23 lung
NCI-H460 lung = test system: NCI-H460 lung
NCI-H522 lung = test system: NCI-H522 lung
NCI/ADR-RES ovarian = test system: NCI/ADR-RES ovarian
OVCAR-3 ovarian = test system: OVCAR-3 ovarian
OVCAR-4 ovarian = test system: OVCAR-4 ovarian
OVCAR-5 ovarian = test system: OVCAR-5 ovarian
OVCAR-8 ovarian = test system: OVCAR-8 ovarian
PC-3 prostate = test system: PC-3 prostate
RPMI-8226 leukemia = test system: RPMI-8226 leukemia
RXF 393 renal = test system: RXF 393 renal
SF-268 CNS = test system: SF-268 CNS
SF-295 CNS = test system: SF-295 CNS
SF-539 CNS = test system: SF-539 CNS
SK-MEL-2 melanoma = test system: SK-MEL-2 melanoma
SK-MEL-5 melanoma = test system: SK-MEL-5 melanoma
SK-OV-3 ovarian = test system: SK-OV-3 ovarian
SN12C renal = test system: SN12C renal
SNB-19 CNS = test system: SNB-19 CNS
SNB-75 CNS = test system: SNB-75 CNS
SW-620 colon = test system: SW-620 colon
T-47D breast = test system: T-47D breast
TK-10 renal = test system: TK-10 renal
U251 CNS = test system: U251 CNS
UACC-257 melanoma = test system: UACC-257 melanoma
UACC-62 melanoma = test system: UACC-62 melanoma

SMILES: ClC(Cn1ncc2c(Nc3cccc(Br)c3)nc(SCCN3CCOCC3)nc21)c1ccc(Br)cc1 (stereo unspecified)
- GI50 (786-0 renal): 1760 nM
- TGI (786-0 renal): 3.35 µM
- GI50 (A498 renal): 6.37 µM
- TGI (A498 renal): 35.2 µM
- GI50 (A549 NSCLC): 4.93 µM
- TGI (A549 NSCLC): > 100 µM
- GI50 (ACHN renal): 4.38 µM
- TGI (ACHN renal): > 100 µM
- GI50 (BT-549 breast): 11.7 µM
- TGI (BT-549 breast): 27.9 µM
- GI50 (CCRF-CEM leukemia): 2170 nM
- TGI (CCRF-CEM leukemia): 10.1 µM
- GI50 (COLO 205 colon): 1980 nM
- TGI (COLO 205 colon): 4.48 µM
- GI50 (DU-145 prostate): 15.1 µM
- TGI (DU-145 prostate): > 100 µM
- GI50 (EKVX NSCLC): 5.01 µM
- TGI (EKVX NSCLC): > 100 µM
- GI50 (HCC-2998 colon): 3.8 µM
- TGI (HCC-2998 colon): 60 µM
- GI50 (HCT-116 colon): 3.09 µM
- TGI (HCT-116 colon): > 100 µM
- GI50 (HCT-15 colon): 1650 nM
- TGI (HCT-15 colon): 3.8 µM
- GI50 (HL-60(TB) leukemia): 3.03 µM
- TGI (HL-60(TB) leukemia): > 100 µM
- GI50 (HOP-62 NSCLC): 3.71 µM
- TGI (HOP-62 NSCLC): 22.4 µM
- GI50 (HOP-92 NSCLC): 3.5 µM
- TGI (HOP-92 NSCLC): 23.9 µM
- GI50 (HS 578T breast): 2440 nM
- TGI (HS 578T breast): 7.88 µM
- GI50 (IGROV1 ovarian): 8 µM
- TGI (IGROV1 ovarian): > 100 µM
- GI50 (K-562 leukemia): 2840 nM
- TGI (K-562 leukemia): 26.2 µM
- GI50 (KM12 colon): 2720 nM
- TGI (KM12 colon): 7.36 µM
- GI50 (LOX IMVI melanoma): 1740 nM
- TGI (LOX IMVI melanoma): 3.24 µM
- GI50 (M14 melanoma): 2500 nM
- TGI (M14 melanoma): 8.72 µM
- GI50 (MALME-3M melanoma): 1810 nM
- TGI (MALME-3M melanoma): 3.53 µM
- GI50 (MCF7 breast): 2770 nM
- TGI (MCF7 breast): 24.6 µM
- GI50 (MDA-MB-231 breast): 2250 nM
- TGI (MDA-MB-231 breast): 4.66 µM
- GI50 (MDA-MB-435): 3.89 µM
- TGI (MDA-MB-435): 21.5 µM
- GI50 (MDA-MB-468 breast): 2520 nM
- TGI (MDA-MB-468 breast): 6.89 µM
- GI50 (NCI-H226 lung): 9.32 µM
- TGI (NCI-H226 lung): 71.6 µM
- GI50 (NCI-H23 lung): 3.46 µM
- TGI (NCI-H23 lung): 18.6 µM
- GI50 (NCI-H460 lung): 3.55 µM
- TGI (NCI-H460 lung): > 100 µM
- GI50 (NCI-H522 lung): 2870 nM
- TGI (NCI-H522 lung): 9.33 µM
- GI50 (NCI/ADR-RES ovarian): 3.89 µM
- TGI (NCI/ADR-RES ovarian): 97.5 µM
- GI50 (OVCAR-3 ovarian): 10.3 µM
- TGI (OVCAR-3 ovarian): 60 µM
- GI50 (OVCAR-4 ovarian): 6.42 µM
- TGI (OVCAR-4 ovarian): > 100 µM
- GI50 (OVCAR-5 ovarian): 5.24 µM
- TGI (OVCAR-5 ovarian): 30.3 µM
- GI50 (OVCAR-8 ovarian): 6.5 µM
- TGI (OVCAR-8 ovarian): > 100 µM
- GI50 (PC-3 prostate): 3.77 µM
- TGI (PC-3 prostate): > 100 µM
- GI50 (RPMI-8226 leukemia): 2030 nM
- TGI (RPMI-8226 leukemia): 4.59 µM
- GI50 (RXF 393 renal): 1690 nM
- TGI (RXF 393 renal): 4.49 µM
- GI50 (SF-268 CNS): 6.94 µM
- TGI (SF-268 CNS): > 100 µM
- GI50 (SF-295 CNS): 1780 nM
- TGI (SF-295 CNS): 3.57 µM
- GI50 (SF-539 CNS): 1790 nM
- TGI (SF-539 CNS): 3.48 µM
- GI50 (SK-MEL-2 melanoma): 4.62 µM
- TGI (SK-MEL-2 melanoma): 24.5 µM
- GI50 (SK-MEL-5 melanoma): 2070 nM
- TGI (SK-MEL-5 melanoma): 4.47 µM
- GI50 (SK-OV-3 ovarian): 6.46 µM
- TGI (SK-OV-3 ovarian): > 100 µM
- GI50 (SN12C renal): 6.47 µM
- TGI (SN12C renal): > 100 µM
- GI50 (SNB-19 CNS): 5.14 µM
- TGI (SNB-19 CNS): > 100 µM
- GI50 (SNB-75 CNS): 2570 nM
- TGI (SNB-75 CNS): 24.3 µM
- GI50 (SW-620 colon): 2760 nM
- TGI (SW-620 colon): 12.6 µM
- GI50 (T-47D breast): 3.47 µM
- TGI (T-47D breast): > 100 µM
- GI50 (TK-10 renal): 13.6 µM
- TGI (TK-10 renal): > 100 µM
- GI50 (U251 CNS): 3.34 µM
- TGI (U251 CNS): 41.3 µM
- GI50 (UACC-257 melanoma): 2820 nM
- TGI (UACC-257 melanoma): 9.84 µM
- GI50 (UACC-62 melanoma): 2230 nM
- TGI (UACC-62 melanoma): 4.75 µM
